Results on 18 molecules are retold here after patent US12441726B2, “Compounds and uses thereof” (Foghorn Therapeutics Inc., priority 2020, dated 2025).

Series [1] relates to Uveal melanoma cell lines (92-1, MP41, MP38, MP46), hematologic cancer and other cancer cell lines. Briefly: Growth of uveal melanoma, hematological and other cancer cell lines, day 3 and day 7 (Cell-titer glo, GI50), Compound A. Type of series: cell-based. The note with it: FIG. 1. How it is done:
(§1) Procedure: Uveal melanoma cell lines (92-1, MP41, MP38, MP46), prostate cancer cell lines (LNCAP), lung cancer cell lines (NCI-H1299), and immortalized embryonic kidney lines (HEK293T) were plated into 96 well plates with growth media (see Table 5). […] Cells were incubated at 37 degrees Celsius for 3 days. After three days of treatment, the media was removed from the cells and 30 microliters of TrypLE (Gibco) was added to cells for 10 minutes. Cells were detached from the plates and resuspended with the addition of 170 microliters of growth media. Cells from two DMSO-treated control wells were counted, and the initial number of cells plated at the start of the experiment, were re-plated into fresh-compound containing plates for an additional four days at 37 degrees Celsius. At day 7, cells were harvested as described above. On day 3 and day 7, relative cell growth was measured by the addition of Cell-titer glo (Promega) and luminescence was measured on an Envision plate reader (Perkin Elmer). […] At the time of cell splitting on days […], cells were split into new 96 well plates, and fresh compound was added four hours after re-plating.

The subject of series [2] is Uveal melanoma cell lines, 92-1 or MP41. Briefly: Comparison to clinical PKC and MEK inhibitors in uveal melanoma cell lines, 3-day growth (Compound A). The class given is cell-based. The note with it: FIG. 2A and 2B. How it is done: Procedure: Uveal melanoma cell lines, 92-1 or MP41, were plated in 96 well plates in the presence of growth media (see Table 26). […] Cells were incubated at 37 degrees Celsius for 3 days. After three days of treatment, cell growth was measured with Cell-titer glow (Promega), and luminescence was read on an Envision plate reader (Perkin Elmer).

In series [3] the test system is Uveal melanoma cell lines (92-1, MP41, MP38, MP46) and Non-small cell lung cancer cells (NCIH1299). Briefly: Growth of uveal melanoma and non-small cell lung cancer cell lines, 3 days (Cell-titer glow). Type of series: cell-based. The note with it: 0 to 10 micromolar, FIG. 5. The procedure:
Procedure: Uveal melanoma cell lines (92-1, MP41, MP38, MP46) and Non-small cell lung cancer cells (NCIH1299) were plated into 96 well plates with growth media (see Table 27). BRG1/BRM ATPase inhibitor, compound 67, was dissolved in DMSO and added to the cells in a concentration gradient from 0 to 10 micromolar at the time of plating. Cells were incubated at 37° C. for 3 days. After three days of treatment, cell growth was measured with Cell-titer glow (Promega), and luminescence was read on an Envision plate reader (Perkin Elmer).

The subject of series [4] is Uveal melanoma cell lines, 92-1 or MP41. Put plainly: Comparison to clinical PKC and MEK inhibitors in uveal melanoma cell lines, 3-day growth (Compound B). The class given is cell-based. The note with it: FIG. 6A and 6B. How it is done: Procedure: Uveal melanoma cell lines, 92-1 or MP41, were plated in 96 well plates in the presence of growth media (see Table 27). […] Cells were incubated at 37° C. for 3 days. After three days of treatment, cell growth was measured with Cell-titer glow (Promega), and luminescence was read on an Envision plate reader (Perkin Elmer).

For series [5], the system named is PKC inhibitor (PKCi)-resistant MP41 uveal melanoma cells. Put plainly: 7-day growth inhibition assay, PKC inhibitor-resistant cells. Type of series: cell-based. The note with it: 7-day assay. The procedure: as §1
(§2) Procedure: MP41 uveal melanoma cells were made resistant to the PKC inhibitor (LXS196; MedChemExpress), by long-term culture in growth media (see Table 27) containing increasing concentrations of the compound, up to 1 micromolar.

Series [6] deals with parental MP41 cells. Put plainly: 7-day growth inhibition assay, parental cells. Type of series: cell-based. The note with it: 7-day assay; FIG. 7B. The procedure: as §1, §2
The nature of series [7]: Body weight / tolerability in tumor-bearing mice. Type of series: in vivo. The conditions noted are these: all treatments, once daily oral gavage, 3 weeks; FIG. 8C. How it is done:
Procedure: Nude mice (Envigo) were engrafted subcutaneously in the axillary region with 5×10^6 92-1 uveal melanoma cells in 50% Matrigel. Tumors were grown to a mean of ˜200 mm^3, at which point mice were grouped and dosing was initiated. […] Tumor volumes and body weights were measured over the course of 3 weeks, and doses were adjusted by body weight to achieve the proper dose in terms of mg/kg. At this time, animals were sacrificed, and tumors were dissected and imaged.

Series [8] addresses BRM (Homo sapiens, UniProt P51531). Put plainly: ATPase catalytic activity assay (ADP-Glo), BRM. The conditions noted are these: 30 nM BRM, 400 μM ATP; for IC50: BRM ATPase: IC50 (uM). On the technique in general: In ADP-Glo the light output rises with the ADP produced.
The target in series [9] is BRG-1 (Homo sapiens, UniProt P51532). Briefly: ATPase catalytic activity assay (ADP-Glo), BRG-1. The note with it: for Emax: 1 h, read-out: BRG1 Max % Inhibition, ADP-Glo, 30 nM BRG-1, 400 μM ATP.
Procedure: The ATPase catalytic activity of BRM or BRG-1 was measured by an in vitro biochemical assay using ADP-Glo™ (Promega, V9102). The ADP-Glo™ kinase assay is performed in two steps once the reaction is complete. The first step is to deplete any unconsumed ATP in the reaction. The second step is to convert the reaction product ADP to ATP, which will be utilized by the luciferase to generate luminesce and be detected by a luminescence reader, such as Envision.
Then following addition of 5 μL of ADP-Glo™ Reagent provided in the kit, the reaction incubates at room temperature for 40 minutes. Then 10 μL of Kinase Detection Reagent provided in the kit is added to convert ADP to ATP, and the reaction incubates at room temperature for 60 minutes. Finally, luminescence measurement is collected with a plate-reading luminometer, such as Envision.

SMILES strings stand for the structures.

Sequence of BRM (P51531 whole entry): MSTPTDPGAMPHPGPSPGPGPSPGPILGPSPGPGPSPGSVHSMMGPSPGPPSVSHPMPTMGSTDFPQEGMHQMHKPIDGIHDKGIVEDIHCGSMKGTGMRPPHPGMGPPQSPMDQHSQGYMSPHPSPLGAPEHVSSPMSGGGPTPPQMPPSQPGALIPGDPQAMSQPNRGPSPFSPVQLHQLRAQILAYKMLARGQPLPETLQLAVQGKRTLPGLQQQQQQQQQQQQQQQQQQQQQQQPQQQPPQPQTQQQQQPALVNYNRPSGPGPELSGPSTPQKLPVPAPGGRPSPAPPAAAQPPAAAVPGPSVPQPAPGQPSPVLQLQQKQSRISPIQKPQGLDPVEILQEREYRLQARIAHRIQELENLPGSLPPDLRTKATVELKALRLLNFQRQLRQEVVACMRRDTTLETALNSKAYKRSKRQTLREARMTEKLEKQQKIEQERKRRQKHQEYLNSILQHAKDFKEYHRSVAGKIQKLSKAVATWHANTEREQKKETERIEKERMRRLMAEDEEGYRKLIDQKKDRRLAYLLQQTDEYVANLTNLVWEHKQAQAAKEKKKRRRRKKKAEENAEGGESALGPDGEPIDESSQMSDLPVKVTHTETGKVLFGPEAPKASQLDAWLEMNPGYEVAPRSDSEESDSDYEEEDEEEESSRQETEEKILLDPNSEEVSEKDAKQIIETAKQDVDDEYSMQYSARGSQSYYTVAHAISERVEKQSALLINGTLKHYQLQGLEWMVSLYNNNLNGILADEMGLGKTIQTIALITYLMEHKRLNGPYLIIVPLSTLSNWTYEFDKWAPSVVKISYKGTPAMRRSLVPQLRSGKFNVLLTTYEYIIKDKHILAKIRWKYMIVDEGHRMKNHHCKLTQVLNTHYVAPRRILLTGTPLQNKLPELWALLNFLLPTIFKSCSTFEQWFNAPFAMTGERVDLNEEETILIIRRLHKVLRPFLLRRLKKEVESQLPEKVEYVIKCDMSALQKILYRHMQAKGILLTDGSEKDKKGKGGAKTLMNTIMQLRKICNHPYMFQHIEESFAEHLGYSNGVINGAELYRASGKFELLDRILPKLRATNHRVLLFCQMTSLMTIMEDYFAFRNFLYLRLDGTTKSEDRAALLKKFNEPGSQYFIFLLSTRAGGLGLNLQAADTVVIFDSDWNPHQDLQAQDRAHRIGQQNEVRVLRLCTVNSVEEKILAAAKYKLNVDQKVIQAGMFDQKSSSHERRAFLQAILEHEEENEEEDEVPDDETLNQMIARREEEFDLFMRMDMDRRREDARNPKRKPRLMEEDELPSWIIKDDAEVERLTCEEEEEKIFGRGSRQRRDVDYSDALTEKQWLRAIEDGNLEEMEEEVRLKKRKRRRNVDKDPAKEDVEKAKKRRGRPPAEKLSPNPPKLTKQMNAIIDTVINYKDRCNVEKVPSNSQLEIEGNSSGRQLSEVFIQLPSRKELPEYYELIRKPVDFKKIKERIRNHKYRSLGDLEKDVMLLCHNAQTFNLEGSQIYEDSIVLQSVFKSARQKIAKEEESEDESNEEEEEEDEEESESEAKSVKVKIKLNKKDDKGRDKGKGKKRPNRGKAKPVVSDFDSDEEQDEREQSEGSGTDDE
Sequence of BRG-1 (P51532 whole entry): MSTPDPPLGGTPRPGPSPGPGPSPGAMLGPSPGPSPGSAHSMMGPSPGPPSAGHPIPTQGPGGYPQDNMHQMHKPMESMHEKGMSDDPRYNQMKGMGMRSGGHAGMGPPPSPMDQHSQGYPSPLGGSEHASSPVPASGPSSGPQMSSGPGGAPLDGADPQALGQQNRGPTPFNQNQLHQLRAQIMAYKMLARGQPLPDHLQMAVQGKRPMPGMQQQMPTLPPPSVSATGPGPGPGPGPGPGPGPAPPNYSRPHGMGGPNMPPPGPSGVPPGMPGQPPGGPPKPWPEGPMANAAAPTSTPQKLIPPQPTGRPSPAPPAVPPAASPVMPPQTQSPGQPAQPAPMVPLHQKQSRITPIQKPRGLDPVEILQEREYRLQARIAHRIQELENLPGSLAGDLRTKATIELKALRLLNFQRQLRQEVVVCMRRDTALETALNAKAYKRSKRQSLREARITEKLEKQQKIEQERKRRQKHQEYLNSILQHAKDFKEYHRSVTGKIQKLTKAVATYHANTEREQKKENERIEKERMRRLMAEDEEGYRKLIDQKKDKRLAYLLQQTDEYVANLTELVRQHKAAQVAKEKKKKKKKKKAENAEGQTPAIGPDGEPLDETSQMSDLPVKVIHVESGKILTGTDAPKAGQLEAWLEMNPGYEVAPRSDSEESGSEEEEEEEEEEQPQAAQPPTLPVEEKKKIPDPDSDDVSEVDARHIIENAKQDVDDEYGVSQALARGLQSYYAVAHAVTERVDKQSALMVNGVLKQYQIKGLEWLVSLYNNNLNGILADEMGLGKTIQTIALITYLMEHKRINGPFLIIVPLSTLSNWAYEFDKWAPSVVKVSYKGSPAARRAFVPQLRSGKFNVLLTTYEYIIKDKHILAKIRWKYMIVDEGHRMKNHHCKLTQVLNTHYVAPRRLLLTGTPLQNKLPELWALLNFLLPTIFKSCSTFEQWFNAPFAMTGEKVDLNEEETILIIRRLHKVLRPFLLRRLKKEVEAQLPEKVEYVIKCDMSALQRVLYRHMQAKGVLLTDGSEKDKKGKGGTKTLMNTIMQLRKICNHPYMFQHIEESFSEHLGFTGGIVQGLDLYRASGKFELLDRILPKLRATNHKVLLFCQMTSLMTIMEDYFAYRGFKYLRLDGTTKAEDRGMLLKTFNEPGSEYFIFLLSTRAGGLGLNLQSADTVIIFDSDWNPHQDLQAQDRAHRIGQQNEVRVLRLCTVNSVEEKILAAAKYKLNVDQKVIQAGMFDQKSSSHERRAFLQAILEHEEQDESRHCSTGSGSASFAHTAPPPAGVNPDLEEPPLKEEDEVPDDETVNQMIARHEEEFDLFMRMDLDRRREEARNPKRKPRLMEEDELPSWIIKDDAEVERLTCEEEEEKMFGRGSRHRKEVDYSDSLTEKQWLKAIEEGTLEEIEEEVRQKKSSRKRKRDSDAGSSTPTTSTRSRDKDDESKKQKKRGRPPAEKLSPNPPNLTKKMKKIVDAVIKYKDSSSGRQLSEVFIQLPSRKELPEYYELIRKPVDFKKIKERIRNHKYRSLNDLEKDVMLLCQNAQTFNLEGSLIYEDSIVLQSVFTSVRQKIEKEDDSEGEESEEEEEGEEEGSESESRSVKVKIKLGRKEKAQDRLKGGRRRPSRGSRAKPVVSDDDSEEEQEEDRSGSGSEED

Consider `CSCC[C@H](NC(=O)c1ccc(N)cc1)C(=O)Nc1nc(-c2cccc(-c3ccncc3)c2)cs1` [Compound A], for which, in series [1] (uveal melanoma and hematologic cancer cell lines vs other tested cell lines, 0 to 10 micromolar), the “sensitivity of cell lines to BRG1/BRM inhibition (growth)” value is on record as “more sensitive to BRG1/BRM inhibition than the other tested cell lines”. The “duration of growth inhibition” value in series [1] (uveal melanoma and hematologic cancer cell lines) is listed as “maintained through day 7”. Moreover, in series [2] (3 days, 0 to 10 micromolar), the “growth inhibition compared to clinical PKC (LXS196) and MEK (Selumetinib) inhibitors” value was “comparable growth inhibition of uveal melanoma cells as the clinical PKC and MEK inhibitors”. Also, the “onset of inhibition compared to clinical PKC and MEK inhibitors” value in [2] was “faster onset of inhibition than the clinical PKC and MEK inhibitors”.

`CSCC[C@H](NC(=O)c1ccn(S(C)(=O)=O)c1)C(=O)Nc1nc(-c2cccc(-c3ccncc3)c2)cs1` [Compound B, (S)-1-(methylsulfonyl)-N-(4-(methylthio)-1-oxo-1-((4-(3-(pyridin-4-yl)phenyl)thiazol-2-yl)amino)butan-2-yl)-1H-pyrrole-3-carboxamide]: the “growth inhibition in the uveal melanoma cell lines” value in series [3] is listed as “potent growth inhibition”. In addition, the “growth inhibition compared to clinical PKC (LXS196) and MEK (Selumetinib) inhibitors” value in series [4] (3 days, 0 to 10 micromolar) was “more potent effects on growth inhibition of uveal melanoma cells as compared to the clinical PKC and MEK inhibitors”. Moreover, the “onset of growth inhibition compared to clinical PKC and MEK inhibitors” value in [4] is “faster onset of growth inhibition than the clinical PKC and MEK inhibitors”. Also, in series [5] (FIG. 7B), the “growth inhibition of PKCi-resistant cell line” value is “strong growth inhibition” and the “sensitivity of PKCi-resistant cells relative to parental MP41 cells” value was “more sensitive to Compound B than were the parental MP41 cells”. In addition, the “growth inhibition of parental cell line” value in series [6] is on record as “strong growth inhibition”.

As to `C[C@@H]1CN(c2cccc(-c3csc(NC(=O)CNC(=O)c4ccn(C(C)(C)C)c4)n3)n2)C[C@H](C)O1` [Compound C, 1-(tert-butyl)-N-(2-((4-(6-(cis-2,6-dimethylmorpholino)pyridin-2-yl)thiazol-2-yl)amino)-2-oxoethyl)-1H-pyrrole-3-carboxamide], the “tolerability / body weight change” value in series [7] is listed as “well tolerated with no body weight loss observed”.

Turning to `CC1(N)CCN(c2cccnc2NC(=O)c2nc(-c3ncccc3C(F)(F)F)cnc2N)CC1` [LXS196, reference compound], the “tolerated concentration for growth, PKCi-resistant vs parental cells” value in series [5] (FIG. 7A) was “could tolerate growth at higher concentrations of LXS196 than could the parental MP41 cell line”.

The term IC50 denotes the concentration that gives 50% inhibition. A lower IC50 goes with greater potency. Take `C[C@@]1(F)COCc2ncc(C(=O)NCc3cc4nc(-c5ccccc5)sc4cn3)cc21` [Compound 290]: in series [8], the “BRM Max % Inhibition” value is recorded as 94% and the IC50 was 0.1 to 0.5 µM. In series [9], the IC50 lay in the range of 500 to 1000 nM and the Emax was 53%.

As to `C[C@]1(F)CCCc2ncc(C(=O)NCc3cc4nc(-c5cncc(C6CC6)n5)ccc4cn3)cc21` [Compound 252], in series [8], the “BRM Max % Inhibition” value is recorded as 87% and the IC50 fell in the range of 0.1 to 0.5 µM. Also, in [9], the half-maximal inhibitory concentration (IC50) is over 1000 nM and the Emax came out at 33%.

Turning to `COC1CN(C(=O)c2cccc(-c3ccc4cnc(CNC(=O)c5ccc6c(c5)[C@](C)(C#N)COC6)cc4n3)c2)C1` [Compound 445], in series [8], the “BRM Max % Inhibition” value is on record as 96% and the IC50 is 0.1 to 0.5 µM. Besides, in series [9], the IC50 is 500 to 1000 nM and the Emax turned out to be 72%.

Turning to `CO[C@H]1CCN(c2cncc(-c3ccc4cnc(CNC(=O)c5ccc6c(c5)[C@](C)(F)COC6)cc4c3)n2)C1` [Compound 265], in series [8], the “BRM Max % Inhibition” value is recorded as 104% and the IC50 is under 0.1 µM. In addition, in series [9], the IC50 was under 100 nM and the Emax was found to be 99%.

For `C[C@@]1(C#N)COCc2c(F)cc(C(=O)NCc3cc4cc(-c5cncc(N6CCC6)n5)ccc4cn3)cc21` [Compound 270], in series [8], the “BRM Max % Inhibition” value worked out at 104% and the IC50 was under 0.1 µM. Moreover, in [9], the IC50 is under 100 nM and the Emax came out at 98%.

Turning to `CN1CCN(c2cccc(-c3ccc4cnc(CNC(=O)c5ccc6c(c5)[C@](C)(C#N)COC6)cc4n3)c2)CC1` [Compound 474], in [8], the “BRM Max % Inhibition” value turned out to be 93% and the IC50 lay in the range of 0.1 to 0.5 µM. In series [9], the IC50 was over 1000 nM and the Emax came out at 53%.

In the case of `COCCC(=O)N1CCN(c2cccc(-c3ccc4cnc(CNC(=O)c5ccc6c(c5)[C@](C)(C#N)COC6)cc4n3)n2)CC1` [Compound 288], in series [8], the “BRM Max % Inhibition” value was found to be 101% and the IC50 is under 0.1 µM. Further, in series [9], the IC50 fell in the range of 100 to 500 nM and the Emax turned out to be 98%.

`C[C@@]1(C#N)COCc2ccc(C(=O)NCc3cc4nc(-c5cnc(N6CCC6)cn5)ccc4cn3)cc21` [Compound 414]: in series [8], the “BRM Max % Inhibition” value is recorded as 91% and the IC50 fell in the range of 0.1 to 0.5 µM. For the same molecule, in series [9], the IC50 fell in the range of 500 to 1000 nM and the Emax turned out to be 67%.

Regarding `C[C@@]1(F)COCc2ccc(C(=O)NCc3cc4nc(-c5ccnc(N6CCN(C7COC7)CC6)n5)ccc4cn3)cc21` [Compound 292], in [8], the “BRM Max % Inhibition” value is given as 99% and the IC50 is under 0.1 µM. For the same molecule, in [9], the IC50 lay within 100 to 500 nM and the Emax stood at 94%.

Turning to `C[C@@]1(C#N)COCc2ccc(C(=O)NCc3cc4nc(-c5cnccn5)ccc4cn3)cc21` [Compound 520], in series [8], the “BRM Max % Inhibition” value was 88% and the IC50 was 0.1 to 0.5 µM. For the same molecule, in series [9], the IC50 lay within 500 to 1000 nM and the Emax came out at 53%.

For `C[C@@]1(C#N)COCc2ccc(C(=O)NCc3cc4cc(-c5ccccc5)ncc4cn3)cc21` [Compound 508], in series [8], the “BRM Max % Inhibition” value is 90% and the IC50 fell in the range of 0.1 to 0.5 µM. Also, in [9], the IC50 was over 1000 nM and the Emax was found to be 46%.

For the molecule `CNC(=O)c1cccc(-c2ccc3cnc(CNC(=O)c4ccc5c(c4)[C@](C)(C#N)COC5)cc3n2)c1F` [Compound 460], in series [8], the “BRM Max % Inhibition” value was 98% and the concentration for half-maximal inhibition (IC50) was in the range of 0.1 to 0.5 µM. In [9], the IC50 fell in the range of 500 to 1000 nM and the Emax came out at 75%.

`C[C@@]1(C#N)COCc2ccc(C(=O)NCc3cc4nc(-c5cnn(-c6ccncc6)c5)ccc4cn3)cc21` [Compound 477]: in [8], the “BRM Max % Inhibition” value came to 88% and the IC50 lay within 0.1 to 0.5 µM. Moreover, in [9], the IC50 is over 1000 nM and the Emax was determined as 49%.

As to `Cn1ccc2c(F)cc(-c3ccc4cnc(CNC(=O)c5ccc6c(c5)[C@](C)(C#N)COC6)cc4n3)cc2c1=O` [Compound 434], in series [8], the “BRM Max % Inhibition” value amounted to 100% and the IC50 is under 0.1 µM. Also, in series [9], the IC50 is under 100 nM and the Emax stood at 92%.
